The values below come from patent EP3800188A1, “SUBSTITUTED PYRAZOLOPYRIMIDINES AS IRAK4 INHIBITORS” (Bayer AG, priority 2019, dated 2021).

The nature of data set [1]: Metabolic stability in human liver microsomes. The following applies: 1 µM compound; for CLblood, human microsomes: hepatic in vivo blood clearance calculated with well stirred liver model, '(stable)' given beside < 0.01; for Fmax, human microsomes: maximal oral bioavailability calculated with well stirred liver model, 0.5 mg/mL protein, '(stable)' given beside 100.
Method: The in vitro metabolic stability of test compounds was determined by incubating them at 1 µM in a suspension liver microsomes in 100 mM phosphate buffer, pH7.4 (NaH2PO4 x H2O + Na2HPO4 x 2H2O) and at a protein concentration of 0.5 mg/mL at 37° C. The microsomes were activated by adding a co-factor mix containing 8 mM Glukose-6-Phosphat, 4 mM MgCl2, 0.5 mM NADP and 1 IU/mL G-6-P-Dehydrogenase in phosphate buffer, pH 7.4. The metabolic assay was started shortly afterwards by adding the test compound to the incubation at a final volume of 1 mL. Organic solvent in the incubations was limited to ≤0.01 % dimethylsulfoxide (DMSO) and ≤1% acetonitril. During incubation, the microsomal suspensions were continuously shaken at 580 rpm, and aliquots were taken at 2, 8, 16, 30, 45 and 60 min, to which equal volumes of cold methanol were immediately added. Samples were frozen at -20° C over night, subsequently centrifuged for 15 min at 3000 rpm and the supernatant was analyzed with an Agilent 1200 HPLC-system with LCMS/MS detection.
The half-life of a test compound was determined from the concentration-time plot. From the half-life the intrinsic clearances were calculated. Together with the additional parameters liver blood flow, specific liver weight and microsomal protein content the hepatic in vivo blood clearance (CL) and the maximal oral bioavailability (Fmax) were calculated using the "well stirred" liver model. The following parameter values were used: Liver blood flow - 1.32 L/h/kg (human), 2.1 L/h/kg (dog); specific liver weight - 21 g/kg (human), 39 g/kg (dog); microsomal protein content - 40 mg/g.
The next data set deals with T1, human IRAK4 (Homo sapiens, UniProt Q9NWZ3).
T1 construct: GST (N); made in house; host or cells: baculovirus-infected Hi5 (BTI-TN-5B1-4) insect cells
T1 sequence (Q9NWZ3 1-460): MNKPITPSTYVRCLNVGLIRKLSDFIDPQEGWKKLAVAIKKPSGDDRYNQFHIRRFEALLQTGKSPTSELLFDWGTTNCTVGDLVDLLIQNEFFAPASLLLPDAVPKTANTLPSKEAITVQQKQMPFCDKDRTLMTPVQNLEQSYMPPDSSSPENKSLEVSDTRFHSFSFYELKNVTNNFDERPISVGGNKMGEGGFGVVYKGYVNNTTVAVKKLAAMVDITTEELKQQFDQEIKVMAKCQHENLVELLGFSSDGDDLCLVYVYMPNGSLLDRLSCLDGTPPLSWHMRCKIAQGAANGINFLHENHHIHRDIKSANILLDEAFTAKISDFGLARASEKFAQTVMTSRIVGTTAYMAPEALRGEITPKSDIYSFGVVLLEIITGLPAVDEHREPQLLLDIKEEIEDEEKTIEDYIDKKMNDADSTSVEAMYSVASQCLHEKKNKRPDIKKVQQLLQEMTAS
In words: Human IRAK4 kinase activity inhibition assay (IRAK4 TR-FRET assay). The data set is classed as biochemical. Particulars: 1 mM ATP, GST-human IRAK4, average or median values. The method in brief: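 GST-IRAK4 from insect cells (about 0.2 nM, linear range) was preincubated 15 min with compound (11 concentrations, 20 µM–0.073 nM) in HEPES pH 7.5 with MgCl2 and DTT before kinase reaction on a biotinylated peptide. Phosphopeptide was detected by TR-FRET (Eu anti-mouse-IgG/anti-phosphoserine/streptavidin-XL665, 1 h at 22°C) as the 665/620 nm ratio, normalized to no-compound and no-enzyme controls.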
(Time-resolved FRET reads energy transfer from a long-lived donor to a nearby acceptor.)

Usually IC50 stands for the concentration that gives 50% inhibition. For the compound `CC1(O)CCN(C2CN(c3nc(N[C@H]4C[C@H](O)C4)nc4c3cnn4-c3cccc(C(F)(F)F)c3)C2)CC1` [Example I-79, 1-(1-{6-[(trans-3-hydroxycyclobutyl)amino]-1-[3-(trifluoromethyl)phenyl]-1H-pyrazolo-[3,4-d]pyrimidin-4-yl}azetidin-3-yl)-4-methylpiperidin-4-ol], in data set [1], the “CLblood, human microsomes” value was 0.41 L/h/kg and the “Fmax, human microsomes” value is listed as 69%. On human IRAK4, this compound had a half-maximal inhibitory concentration (IC50) of 7.75 nM.
For `CC(C)(O)C1CN(c2nc(N[C@H]3C[C@H](S(C)(=O)=O)C3)nc3c2cnn3-c2cccc(C(F)(F)F)c2)C1` [Example I-83, 2-[1-(6-{[trans-3-(methylsulfonyl)cyclobutyl]amino}-1-[3-(trifluoromethyl)phenyl]-1H-pyrazolo[3,4-d]pyrimidin-4-yl)azetidin-3-yl]propan-2-ol], in data set [1], the “CLblood, human microsomes” value was 0.23 L/h/kg and the “Fmax, human microsomes” value is 83%. The same compound came in with a half-maximal inhibitory concentration (IC50) against human IRAK4 of 5.53 nM.
As for `O[C@@H]1CN(c2nc(N[C@H]3C[C@@H](O)C3)nc3c2cnn3-c2cccc(C(F)(F)F)c2)C[C@H]1O` [Example I-85, (3R,4R)-1-(6-{[(1s,3S)-3-hydroxycyclobutyl]amino}-1-[3-(trifluoromethyl)phenyl]-1H-pyrazolo[3,4-d]pyrimidin-4-yl)pyrrolidine-3,4-diol], in data set [1], the “CLblood, human microsomes” value is recorded as < 0.01 (stable) L/h/kg and the “Fmax, human microsomes” value is 100 (stable) %. The compound further gave an IC50 at human IRAK4 of 2.41 nM.
For `CS(=O)(=O)[C@H]1C[C@H](Nc2nc(N3C[C@@H](O)[C@H](F)C3)c3cnn(-c4cccc(C(F)(F)F)c4)c3n2)C1` [Example I-86, (3R,4R)-4-fluoro-1-(6-{[(1r,3R)-3-(methylsulfonyl)cyclobutyl]amino}-1-[3-(trifluoromethyl)phenyl]-1H-pyrazolo[3,4-d]pyrimidin-4-yl)pyrrolidin-3-ol], in data set [1], the “CLblood, human microsomes” value was 0.25 L/h/kg and the “Fmax, human microsomes” value was 81%. The half-maximal inhibitory concentration (IC50) against human IRAK4 is 3.66 nM.
Take `O[C@@H]1CN(c2nc(N[C@H]3C[C@H](O)C3)nc3c2cnn3-c2cccc(C(F)(F)F)c2)C[C@H]1F` [Example I-88, (3R,4R)-4-fluoro-1-(6-{[(1r,3R)-3-hydroxycyclobutyl]amino}-1-[3-(trifluoromethyl)-phenyl]-1H-pyrazolo[3,4-d]pyrimidin-4-yl)pyrrolidin-3-ol]: in data set [1], the “CLblood, human microsomes” value is 0.57 L/h/kg and the “Fmax, human microsomes” value is listed as 57%. The same compound had an IC50 on human IRAK4 of 3.94 nM.
For `O[C@@H]1CN(c2nc(N[C@H]3C[C@@H](O)C3)nc3c2cnn3-c2cccc(C(F)(F)F)c2)C[C@H]1F` [Example I-89, (3R,4R)-4-fluoro-1-(6-{[(1s,3S)-3-hydroxycyclobutyl]amino}-1-[3-(trifluoromethyl)-phenyl]-1H-pyrazolo[3,4-d]pyrimidin-4-yl)pyrrolidin-3-ol], in data set [1], the “CLblood, human microsomes” value is 0.37 L/h/kg and the “Fmax, human microsomes” value is on record as 72%. Besides, half-maximal inhibition against human IRAK4 (IC50) required 4.72 nM.
With `CC(C)(O)C1CCN(c2nc(N[C@H]3C[C@](C)(O)C3)nc3c2cnn3-c2cccc(C(F)(F)F)c2)CC1` [Example I-91, trans-3-({4-[4-(2-hydroxypropan-2-yl)piperidin-1-yl]-1-[3-(trifluoromethyl)phenyl]-1H-pyrazolo[3,4-d]pyrimidin-6-yl}amino)-1-methylcyclobutanol], in data set [1], the “CLblood, human microsomes” value was 0.04 L/h/kg and the “Fmax, human microsomes” value is given as 97%. Inhibition at human IRAK4 was half-maximal at 6.53 nM (IC50).
Take `CCC1(O)CN(c2nc(N[C@H]3C[C@H](S(C)(=O)=O)C3)nc3c2cnn3-c2cccc(C(F)(F)F)c2)C1` [Example I-92, 3-ethyl-1-(6-{[trans-3-(methylsulfonyl)cyclobutyl]amino}-1-[3-(trifluoromethyl)phenyl]-1H-pyrazolo[3,4-d]pyrimidin-4-yl)azetidin-3-ol]: in data set [1], the “CLblood, human microsomes” value is 0.36 L/h/kg and the “Fmax, human microsomes” value is given as 73%. The compound further came in with an IC50 against human IRAK4 of 5.61 nM.
Take `CS(=O)(=O)[C@H]1C[C@H](Nc2nc(N3C[C@H](O)[C@@H](F)C3)c3cnn(-c4cccc(C(F)(F)F)c4)c3n2)C1` [Example I-94, (3S,4S)-4-fluoro-1-(6-{[(1r,3S)-3-(methylsulfonyl)cyclobutyl]amino}-1-[3-(trifluoromethyl)phenyl]-1H-pyrazolo[3,4-d]pyrimidin-4-yl)pyrrolidin-3-ol]: in data set [1], the “CLblood, human microsomes” value is 0.16 L/h/kg and the “Fmax, human microsomes” value was 88%. Further, the IC50 against human IRAK4 turned out to be 4.28 nM.
For `O[C@H]1CN(c2nc(N[C@H]3C[C@@]4(CCN4)C3)nc3c2cnn3-c2cccc(C(F)(F)F)c2)C[C@@H]1F` [Example I-98, (3S,4S)-1-{6-[(4S,6s)-1-azaspiro[3.3]heptan-6-ylamino]-1-[3-(trifluoromethyl)phenyl]-1H-pyrazolo[3,4-d]pyrimidin-4-yl}-4-fluoropyrrolidin-3-ol], in data set [1], the “CLblood, human microsomes” value is given as < 0.01 (stable) L/h/kg and the “Fmax, human microsomes” value is recorded as 100 (stable) %. Further, half-maximal inhibition against human IRAK4 (IC50) was put at 9.99 nM.
Take `O[C@@H]1CN(c2nc(N[C@H]3C[C@H](O)C3)nc3c2cnn3-c2cccc(C(F)(F)F)c2)C[C@H]1O` [Example I-101, (3R,4R)-1-(6-{[(1r,3R)-3-hydroxycyclobutyl]amino}-1-[3-(trifluoromethyl)phenyl]-1H-pyrazolo[3,4-d]pyrimidin-4-yl)pyrrolidine-3,4-diol]: in data set [1], the “CLblood, human microsomes” value was 0.35 L/h/kg and the “Fmax, human microsomes” value is 73%. The compound further gave a half-maximal inhibitory concentration (IC50) at human IRAK4 of 2.81 nM.
As for `CC1(N2CCOCC2)CN(c2nc(NC3CCS(=O)(=O)CC3)nc3c2cnn3-c2cccc(C(F)(F)F)c2)C1` [Example I-106, N-(1,1-dioxidotetrahydro-2H-thiopyran-4-yl)-4-[3-methyl-3-(morpholin-4-yl)azetidin-1-yl]-1-[3-(trifluoromethyl)phenyl]-1H-pyrazolo[3,4-d]pyrimidin-6-amine], in data set [1], the “CLblood, human microsomes” value is given as 0.68 L/h/kg and the “Fmax, human microsomes” value is 48%. This compound also came in with a half-inhibitory concentration (IC50) against human IRAK4 of 9.09 nM.
In the same order, the values of `C[C@]1(O)C[C@@H](Nc2nc(N3C[C@@H](O)[C@H](O)C3)c3cnn(-c4cccc(C(F)(F)F)c4)c3n2)C1` [Example I-107] are 0.05 L/h/kg, 96% and 8.11 nM.
Turning to `C[C@]1(O)C[C@H](Nc2nc(N3C[C@@H](O)[C@H](O)C3)c3cnn(-c4cccc(C(F)(F)F)c4)c3n2)C1` [Example I-108, (3R,4R)-1-(6-{[(1r,3R)-3-hydroxy-3-methylcyclobutyl]amino}-1-[3-(trifluoromethyl)-phenyl]-1H-pyrazolo[3,4-d]pyrimidin-4-yl)pyrrolidine-3,4-diol], in data set [1], the “CLblood, human microsomes” value is on record as 0.16 L/h/kg and the “Fmax, human microsomes” value is given as 88%. At human IRAK4, the concentration for half-maximal inhibition (IC50) is 3.72 nM.
As to `CC1(O)CCN(C2CN(c3nc(N[C@H]4C[C@@H](O)C4)nc4c3cnn4-c3cccc(C(F)(F)F)c3)C2)CC1` [Example I-109, 1-(1-{6-[(cis-3-hydroxycyclobutyl)amino]-1-[3-(trifluoromethyl)phenyl]-1H-pyrazolo[3,4-d]pyrimidin-4-yl}azetidin-3-yl)-4-methylpiperidin-4-ol], in data set [1], the “CLblood, human microsomes” value is 0.33 L/h/kg and the “Fmax, human microsomes” value was 75%. At human IRAK4, this compound displayed an IC50 of 10.6 nM.
